Columns and labels:
Assay type in all cases: in vivo
[1] = system: Echinochloa crus-galli; assay: Paddy herbicidal activity test; conditions: irrigated pot, treated at 3.5 leaf stage of Echinochloa crus-galli, 30 days at 30° C.
Method: (§1) Rice paddy soil was filled into a 1/10000 are pot followed by the addition of suitable amounts of water and chemical fertilizer, kneading, seeding with Echinochloa crus-galli, Monochoria vaginalis and Scirpus juncoides and maintaining in an irrigated state at a water depth of 3 cm. Wettable powders of Target Compound (I) shown in Table 1 prepared in compliance with the preparation examples were diluted with a suitable amount of water, rice plants in the 2.0 leaf stage were transplanted during 3.5 leaf stage of Echinochloa crus-galli, and treated by dropping in chemical in the prescribed amount per 10 are using a pipette. After treating for 30 days in a glass greenhouse at an average atmospheric temperature of 30° C., the herbicidal efficacy thereof was investigated. Evaluation of herbicidal efficacy was carried out by comparing growth inhibition rate (%) with an untreated group, while evaluation of phytotoxicity was carried out by comparing growth inhibition rate (%) with the state of a complete eradication group, and were evaluated at 11 levels indicated below.

[2] = system: Monochoria vaginalis; assay: Paddy herbicidal activity test; conditions: irrigated pot, treated at 3.5 leaf stage of Echinochloa crus-galli, 30 days at 30° C.
Method: as §1

[3] = system: Scirpus juncoides; assay: Paddy herbicidal activity test; conditions: irrigated pot, treated at 3.5 leaf stage of Echinochloa crus-galli, 30 days at 30° C.
Method: as §1

[4] = system: Amaranthus retroflexus; assay: Farming soil treatment test; conditions: soil surface spray prior to weed growth, 30 days at 30° C.
Method: (§2) Field soil was filled into a 1/6000 are pot followed by seeding with Digitaria ciliaris, Chenopodium album and Amaranthus retroflexus and covering with soil. Wettable powders of compounds of formula (I) shown in Table 1 prepared in compliance with the preparation examples were diluted with water to the prescribed amount of chemical and uniformly sprayed onto each soil surface layer using 100 liters of sprayed water per 10 are prior to weed growth following seeding. After treating for 30 days in a glass greenhouse at an average atmospheric temperature of 30° C., the herbicidal efficacy thereof was investigated. Evaluation of herbicidal efficacy was carried out in the same manner as the above-mentioned Test Example 1.

[5] = system: Digitaria ciliaris; assay: Farming soil treatment test; conditions: soil surface spray prior to weed growth, 30 days at 30° C.
Method: as §2

[6] = system: Chenopodium album; assay: Farming soil treatment test; conditions: soil surface spray prior to weed growth, 30 days at 30° C.
Method: as §2

[7] = system: Digitaria ciliaris; assay: Weed foliar treatment test (Test 4, 4.0 to 5.0 leaf stage); conditions: 10 g a.i./10 a; foliar spray at 4.0 to 5.0 leaf stage of Digitaria ciliaris (plant height 10 cm to 15 cm); 20 days at 25° C.
Method: (§3) Field soil was filled into a 1/4500 are pot followed by seeding with Digitaria ciliaris and Galinsoga parviflora, covering with soil and cultivating in a glass greenhouse at an average atmospheric temperature of 25° C. Wettable powders of Target Compound (I) shown in Table 1 prepared in compliance with the preparation examples were diluted with water to the prescribed amount of chemical and uniformly sprayed onto the weeds using 100 liters of sprayed water per 10 are when Digitaria ciliaris had grown to the 4.0 to 5.0 leaf stage (plant height: 10 cm to 15 cm). After treating for 20 days in a glass greenhouse at an average atmospheric temperature of 25° C., the herbicidal efficacy thereof was investigated. Evaluation of herbicidal efficacy was carried out in the same manner as the above-mentioned Test Example 1.

[8] = system: Galinsoga parviflora; assay: as above; conditions: 10 g a.i./10 a; foliar spray at 4.0 to 5.0 leaf stage of Digitaria ciliaris (plant height 10 cm to 15 cm); 20 days at 25° C.
Method: as §3

[9] = system: Oryza sativa; assay: Paddy herbicidal activity test, phytotoxicity to transplanted rice; conditions: rice transplanted at 2.0 leaf stage, 30 days at 30° C.
Method: as §1

[10] = system: Amaranthus retroflexus; assay: Weed foliar treatment test (Test 3, 1.0 to 2.0 leaf stage); conditions: foliar spray at 1.0 to 2.0 leaf stage of Digitaria ciliaris, 3 weeks at 25° C.
Method: (§4) Soil was filled into a 1/6000 are pot followed by seeding with Digitaria ciliaris, Chenopodium album and Amaranthus retroflexus, covering with soil, and cultivating in a glass greenhouse at an average atmospheric temperature of 25° C. Wettable powders of Target Compound (I) shown in Table 1 prepared in compliance with the preparation examples were diluted with water to the prescribed amount of chemical and uniformly sprayed onto the weeds using 150 liters of sprayed water per 10 are when Digitaria ciliaris had grown to the 1.0 to 2.0 leaf stage. After treating for 3 weeks in a glass greenhouse at an average atmospheric temperature of 25° C., the herbicidal efficacy thereof was investigated. Evaluation of herbicidal efficacy was carried out in the same manner as the above-mentioned Test Example 1.

[11] = system: Digitaria ciliaris; assay: as above; conditions: foliar spray at 1.0 to 2.0 leaf stage of Digitaria ciliaris, 3 weeks at 25° C.
Method: as §4

[12] = system: Chenopodium album; assay: as above; conditions: foliar spray at 1.0 to 2.0 leaf stage of Digitaria ciliaris, 3 weeks at 25° C.
Method: as §4

In the case of N#Cc1cnn(-c2nn3c(c2Cl)CCCC3)c1NC(=O)CCc1ccccc1 [Compound 19], the “herbicidal efficacy, Echinochloa crus-galli” value ([1]; 1 g a.i./10 a) is reported as 9 (9: 90% to less than 100%), the “herbicidal efficacy, Echinochloa crus-galli” value ([1]; 5 g a.i./10 a) is reported as 10 (10: 100%) and the “herbicidal efficacy, Monochoria vaginalis” value ([2]; 1 g a.i./10 a) is reported as 10 (10: 100%). The “herbicidal efficacy, Monochoria vaginalis” value ([2]; 5 g a.i./10 a) was 10 (10: 100%), the “herbicidal efficacy, Scirpus juncoides” value ([3]; 1 g a.i./10 a) was 10 (10: 100%) and the “herbicidal efficacy, Scirpus juncoides” value ([3]; 5 g a.i./10 a) was 10 (10: 100%). For the same molecule, the “herbicidal efficacy, Amaranthus retroflexus” value ([4]; 5 g a.i./10 a) was 10 (10: 100%), the “herbicidal efficacy, Amaranthus retroflexus” value ([4]; 10 g a.i./10 a) was 10 (10: 100%) and the “herbicidal efficacy, Digitaria ciliaris” value ([5]; 5 g a.i./10 a) was 10 (10: 100%). For the same molecule, the “herbicidal efficacy, Digitaria ciliaris” value ([5]; 10 g a.i./10 a) was 10 (10: 100%), the “herbicidal efficacy, Chenopodium album” value ([6]; 5 g a.i./10 a) was 10 (10: 100%) and the “herbicidal efficacy, Chenopodium album” value ([6]; 10 g a.i./10 a) was 10 (10: 100%). For the same molecule, the “herbicidal efficacy, Digitaria ciliaris” value [7] was 10 (10: 100%), the “herbicidal efficacy, Galinsoga parviflora” value [8] was 10 (10: 100%) and the “phytotoxicity, Oryza sativa” value ([9]; 1 g a.i./10 a) was 0 (0 (exponent): 0% to less than 10% (growth inhibition rate)). For the same molecule, the “phytotoxicity, Oryza sativa” value ([9]; 5 g a.i./10 a) was 1 (1: 10% to less than 20%), the “herbicidal efficacy, Amaranthus retroflexus” value ([10]; 5 g a.i./10 a) was 10 (10: 100%) and the “herbicidal efficacy, Amaranthus retroflexus” value ([10]; 10 g a.i./10 a) was 10 (10: 100%). The “herbicidal efficacy, Digitaria ciliaris” value ([11]; 5 g a.i./10 a) was 10 (10: 100%), the “herbicidal efficacy, Digitaria ciliaris” value ([11]; 10 g a.i./10 a) was 10 (10: 100%) and the “herbicidal efficacy, Chenopodium album” value ([12]; 5 g a.i./10 a) was 10 (10: 100%). For the same molecule, the “herbicidal efficacy, Chenopodium album” value ([12]; 10 g a.i./10 a) was 10 (10: 100%).
